According to patent publication US20230331739A1, “INDOLO HEPTAMYL OXIME ANALOG CRYSTAL AS PARP INHIBITOR AND METHOD FOR PREPARING SAME” (CHIA TAI TIANQING PHARMACEUTICAL GROUP CO., LTD., priority 2020, published 2023):

How the values were obtained:
CYP2C19 = CYP2C19 (Homo sapiens (Human), UniProt P33261); experiment: Inhibition against cytochrome P450 isoenzymes, CYP2C19; assay type: in vitro ADME; conditions: human liver microsomes
Protocol: The inhibition of the test compound against different subtypes of the human cytochrome P450 isoenzyme was determined. The test compound, a standard inhibitor (100×final concentration) and a mixed substrate working solution were prepared; the microsomes frozen in a refrigerator at −80° C. were taken out and thawed. […]

[1] = Protein binding rate in plasma (equilibrium dialysis), SD rat; assay type: in vitro ADME; conditions: 4 h dialysis
Protocol: (§1) The protein binding rates of the compound disclosed herein in plasma of human, CD-1 mice and SD rats were determined. 796 μL of blank plasma was taken from human, CD-1 mice or SD rats, and 4 μL of test compound working solution (400 μM) or warfarin working solution (400 μM) was added to achieve a final concentration of 2 μM of both the test compound and the warfarin in the plasma sample. The samples were mixed well. The final concentration of organic phase DMSO was 0.5%; 50 μL of test compound and warfarin plasma sample was pipetted into a sample receiving plate (in triplicate), and a corresponding volume of blank plasma or buffer was immediately added such that the final volume in each sample well was 100 μL. The volume ratio of plasma to dialysis buffer was 1:1. […] All samples were subjected to LC/MS analysis after protein precipitation, and the protein binding rates and the recovery rates were calculated by the following formulas: protein unbinding rate (%)=100× drug concentration passing through dialysis membrane/drug concentration not passing through dialysate; protein binding rate (%)=100−protein unbinding rate (%); recovery rate (%)=100×(drug concentration passing through dialysis membrane+drug concentration not passing through dialysate)/total drug concentration before dialysis.

PARylation in Lovo cells = experiment: PARylation inhibition in Lovo cells; assay type: cell-based; conditions: Homo sapiens, 25 mM H2O2
Protocol: Experimental materials: test compounds, F12K medium, Lovo cells, Anti-Poly (ADP-ribose) mouse monoclonal antibody; FITC-labeled goat anti-mouse IgG; hydrogen peroxide; DAPI; PBS; methanol; acetone; Tween-20; skimmed milk powder; Envision Multimode Plate Reader.
Day One: Lovo cells were seeded on a plate at 60,000 cells/well, and then incubated overnight at 37° C./5% CO2.
1. Washing solution: Tween-20 was added to 1×PBS, and the final concentration of Tween-20 was 0.05%.
2. Blocking solution: Skimmed milk powder was added to the washing solution, and the final concentration of the skimmed milk powder was 5%.
3. Cell immobilization solution: Methanol and acetone were mixed in a ratio of 7:3.
Preparation of test compounds: Compound intermediate plate 1: The compound was diluted to final concentrations of 10 μM to 0.13 nM with DMSO and PBS, and the concentration of DMSO was 1%; Compound intermediate plate 2: The compound was diluted to final concentrations of 10 μM to 0.13 nM with DMSO and PBS containing 50 mM hydrogen peroxide, and the concentration of DMSO was 1%.
1. […]
10. […] After removal of the liquid, corresponding fluorescence values were read on Envision: FITC: 480 nm and 530 nm; DAPI: 360 nm and 460 nm. […]

[2] = Protein binding rate in plasma (equilibrium dialysis), CD-1 mouse; assay type: in vitro ADME; conditions: CD-1 mouse plasma, 4 h dialysis
Protocol: as §1

Chain of CYP2C19 (P33261 whole entry): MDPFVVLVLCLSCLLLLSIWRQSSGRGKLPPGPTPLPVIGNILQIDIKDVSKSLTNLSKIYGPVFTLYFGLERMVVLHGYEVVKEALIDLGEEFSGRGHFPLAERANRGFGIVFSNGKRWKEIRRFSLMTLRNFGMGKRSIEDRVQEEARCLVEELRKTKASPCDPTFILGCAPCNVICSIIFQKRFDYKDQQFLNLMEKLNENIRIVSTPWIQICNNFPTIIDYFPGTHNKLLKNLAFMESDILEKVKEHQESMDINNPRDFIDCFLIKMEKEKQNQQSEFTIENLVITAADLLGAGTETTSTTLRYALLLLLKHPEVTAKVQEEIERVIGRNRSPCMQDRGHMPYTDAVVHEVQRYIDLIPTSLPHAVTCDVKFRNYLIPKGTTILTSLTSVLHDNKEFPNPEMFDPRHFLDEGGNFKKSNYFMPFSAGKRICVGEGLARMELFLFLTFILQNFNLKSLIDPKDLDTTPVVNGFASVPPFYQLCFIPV

C[C@]1(c2ccc(-c3[nH]c4cc(F)cc5c4c3CONC5=O)cc2)CCCN1 [Compound 1]
IC50 (CYP2C19): 8.33 µM | fraction unbound at 4 h, 2 μM [1]: 0.077 | IC50 (PARylation in Lovo cells): 0.019 µM | fraction unbound at 4 h, 2 μM [2]: 0.104
